The text below walks through data of US10709682B2, “Treatment of tinnitus through modulation of chloride co-transporter NKCC1 in the auditory system” (OTOLANUM AG, priority 2011, dated 2020).

“Also recorded” adds a separate entry of the source.

Data set [1] deals with tinnitus. As to conditions: Westerberg et al., 1996 (baclofen); Piccirillo et al., 2007 (gabapentin); cited from earlier work.
Data set [2] concerns KCC2 expression in cochlear tissue. The data set is described as follows: Real-time PCR for KCC2 expression in cochlear tissue after noise or sham exposure and local treatment. The format is in vivo, rat. How it is done: 20 adult female Wistar rats were anaesthetized as described above for the previous experiments. First, auditory brainstem response (ABR) measurements were performed. As in Experiment 2, they were then exposed in a sound attenuation booth for 1.5 hours to a continuous 10 kHz tone at an intensity of 120 dB SPL (Group A; n×10) or sham exposed in the same setting (Group B; n=10). Animals were treated bilaterally right after noise trauma with either artificial perilymph (AP) or bumetanide (Sigma B3023, Lot 027Ko988). AP was prepared freshly in accordance with Guitton et al., 2003 (140 mM NaCl, 4 mM KCl, 2 mM CaCl2, 2m M MgCl2, 10 mM glucose, 10 mM HePES). Bumetanide (300 μM) was prepared as follows: 50 mg of bumetanide powder was diluted in 6.87 ml AP. This 20 mM stock solution was diluted 1:66 in AP (15.15 μL stock solution and 984.85 μL AP). 5 animals of Group A and 5 animals of Group B received AP (total 10 animals) and 5 animals of Group A and 5 animals of Group B received bumetanide total (10 animals). For the local treatment administration, the fur was removed behind the ears and the bulla exposed in a retro-auricular approach. A small hole was carefully drilled into the bony bulla just above the round window niche (0.6-1 mm in diameter). The mucosa was opened and the region around the round window carefully dried of fluid. Through the hole, a small gel-foam pellet (Gelita Tampon; Braun, Melsungen, Germany) was inserted into the round window niche, 5-8 μl of bumetanide solution or AP were applied on the gel foam by means of a precision pipette with gel loader tips, thus avoiding air bubbles under the gel. […] The hole in the bulla was then covered from the outside with muscular tissue and the wound was sutured with surgical thread (Vicryl, Johnson & Johnson, Norderstedt, Germany). Postoperatively the animals were kept warm with the body temperature being controlled until wake-up. […] For the real-time PCR reaction 12.5 μl of SYBRGreen (QuantiFast Sybr Green, Qiagen), 1 μl Primer Mix, 7.3 μl ddH2O and 4 μl cDNA were used per well. […]

In another data set the test system is NKCC1 versus KCC2. Particulars: Blaesse et al., 2009, cited from earlier work.
In data set [3] the test system is inner hair cell ribbon synapses. The data set is described as follows: Count of inner hair cell ribbon synapses after noise or sham exposure and local treatment. Type of data set: in vivo, rat. Particulars: bumetanide 300 μM local at round window, 2 weeks following noise. How it is done:
Ribbon synapses of inner hair cells were counted. Sections were viewed using an Olympus AX70 microscope equipped with epifluorescence illumination (100× objective, NA=1.35) and a motorized z-axis. Images were acquired using a CCD camera and the imaging soft-ware Cell^F (OSIS GmbH, Münster, Germany). For Otoferlin and CtBP2/RIBEYE immunopositive spot counting on cryo-sectioned cochleae were performed through imaging over a distance of 8 μm with the complete coverage of the IHC nucleus and beyond in an image-stack along the z-axis (z-stack). Typically z-stacks consisted of 30 layers with a z-increment of 0.276 µm, for each layer one image per fluorochrome was acquired. Z-stacks were 3-dimensionally deconvoluted using Cell^F's RIDE module with the Nearest Neighbour algorithm (OSIS GmbH, Müster, Germany). 20 adult female Wistar rats were anaesthetized as described above for the previous experiments. First, auditory brainstem response (ABR) measurements were performed. As in Experiment 2, they were then exposed in a sound attenuation booth for 1.5 hours to a continuous 10 kHz tone at an intensity of 120 dB SPL (Group A; n×10) or sham exposed in the same setting (Group B; n=10). Animals were treated bilaterally right after noise trauma with either artificial perilymph (AP) or bumetanide (Sigma B3023, Lot 027Ko988). […] Ribbon synapses of inner hair cells were counted as in Experiment 2.

Data set [4] concerns tinnitus. Particulars: cited from earlier work.
Data set [5] relates to behavioural correlate of tinnitus. As to conditions: chronic tinnitus induced by noise trauma; vigabatrin treatment; cited from earlier work.

`NCC(CC(=O)O)c1ccc(Cl)cc1` (stereo not drawn) [baclofen]: the Effect on tinnitus entry in the data set with tinnitus [1] is “no effects at all”.
For the compound `CCCCNc1cc(C(=O)O)cc(S(N)(=O)=O)c1Oc1ccccc1` [bumetanide], the “KCC2 expression (down-regulation) in noise exposed, bumetanide treated ears versus sham exposed ears” value in data set [2] (noise exposed ears (10 kHz, 120 dB SPL, 1.5 h), bumetanide 300 μM local at round window, 15 days following treatment) is listed as “No such down-regulation”. Also, the “KCC2 expression in noise exposed ears, bumetanide treated versus AP treated” value in data set [2] (noise exposed ears, bumetanide 300 μM local at round window, 15 days following treatment, p<0.01) is “statistically significant difference; also recorded: statistically significantly different”. The “KCC2 expression, bumetanide versus AP treated, sham exposed ears” value in data set [2] (sham exposed ears (Group B), bumetanide 300 μM, 5-8 μl on gel foam at round window niche, cochlear tissue 15 days following treatment) was “no difference”. In the data set with NKCC1 versus KCC2 (Payne et al., 2003), the “Affinity for NKCC1 versus KCC2” value was “much higher affinity for NKCC1 than for KCC2”. Also, the “Decline of inner hair cell ribbons in noise exposed ears that received bumetanide versus sham exposed” value in data set [3] (midbasal and basal cochlear turns) is given as “not significant”. Besides, the “Inner hair cell ribbon numbers in noise exposed ears, bumetanide versus AP treated” value in data set [3] (noise exposed ears, p<0.02) is “significant difference; also recorded: reduced loss of inner hair cell ribbons”.
On to `NS(=O)(=O)c1cc(C(=O)O)c(NCc2ccco2)cc1Cl` [furosemide], for which the “Induction of tinnitus and hearing loss” value with tinnitus [4] (administered at high doses) is “induce temporary tinnitus and hearing loss”. In addition, the Suppression of tinnitus result in the data set on tinnitus [4] (patients, effects only for tinnitus of cochlear rather than central origin) is “suppress tinnitus, albeit only in a reversible fashion and not in all patients”. Also, the “Potency of blocking NKCC1 versus KCCs” value in the data set with NKCC1 versus KCC2 is “approximately equal potency”.
As for `NCC1(CC(=O)O)CCCCC1` [gabapentin], the Effect on tinnitus entry in the data set with tinnitus [1] was “no effects at all”.
Take `C=CC(N)CCC(=O)O` (stereo not drawn) [vigabatrin]: in data set [5], the “Behavioural correlate of tinnitus” value is given as “reversibly suppressed”.
